Results published in patent US7012127B1, “Analogues of lipopolysaccharide-binding protein (LBP)-derived peptides that efficiently neutralize lipopolysaccharides (LPS)” (Centro de Ingenicria Genetica y Biotecnologia, priority 1999, dated 2006).

Tests used:
[1] = tested on: LPS-induced human peripheral blood mononuclear cells (PBMC); test: Release of TNF by LPS-induced human PBMC; assay type: cell-based; conditions: E. coli 0111:B4 LPS incubated with peptide 2 h at 37° C.; human LBP 200 ng/mL; TNFα in supernatants after 18 h; average of three experiments
Description: In order to determine if the peptides of the present invention were able to neutralize LPS-mediated responses, their ability to reduce the release of TNF by LPS-activated human peripheral blood cells was estimated. This assay evaluates the release of TNF by LPS-induced human peripheral blood mononuclear cells (PBMC), using concentrations of LPS commonly found in septic patients. LPS was incubated with fixed concentrations of each peptide during 2 h at 37° C. and the mixtures were then added to PBMC. The culture medium was supplemented with human LBP (200 ng/mL) and plates were incubated at 37° C. in a 5% CO2 atmosphere. TNFα was measured in culture supernatants after 18 h using a human TNF-α specific ELISA. FIG. 4 represents the average results from three different experiments. […] LBPA95 and LBPA96. […] Similar results were observed when other concentrations of LPS (2 or 10 ng/mL) and hLBP (20 or 100 ng/mL) were used.
The effects on this assay of LBP86-99 (LBP), LBPA91, B6,1 and polymyxin B (PMB) are also shown.

[2] = tested on: E. coli LPS lethal challenge in BALB/c mice; test: Endotoxin shock model in Actinomycin D-sensitized mice, survival; assay type: in vivo; conditions: Actinomycin D 7.5 μg i.p., E. coli LPS 1 μg/mouse mixed with peptide (1 h, 37° C.), equimolar doses, survival over 120 h, p<0.05 vs. vehicle or B6,1
Description: An endotoxin shock animal model was used to determine if the peptides of this invention were able to block complex physiological responses triggered by LPS. In this model mice were sensitized with Actinomycin D to increase LPS-mediated toxic responses. With this purpose, Actinomycin D (7.5 μg) was administered i.p. to 6 to 8 weeks-old female mice. Simultaneously each mice received LPS, and survival was evaluated every 24 h during 120 h.
The effect of peptides of the present invention on mice survival was assessed by administering E. coli LPS (1 μg/mouse in saline vehicle) or LPS:peptide mixtures mixtures (previously incubated during 1 h at 37° C.) to BALB/c sensitized mice. FIG. 6 represents the results of a representative experiment where the following peptides were each administered at equimolar doses to groups of 20 mice: LBP86-99, LBPA94, LBPAs95, LBPA98 or B6, 1 (cationic, non-related peptide). […] The aforementioned in vivo neutralizing property of the peptides of the invention is relevant for their application in prophylactic or therapeutic methods for sepsis and other associated disorders.
Survival in groups of BALB/c mice treated with LBP86-99 (LBP) and B6,1 is also shown. Mice survival was recorded each 24 h during 120 h.

[3] = tested on: interaction between hLBP and E. coli LPS; test: ELISA: binding of biotinylated-LPS to surface-captured human LBP in the presence of peptides; conditions: LPS and peptide incubated 2 h at room temperature; fixed quantities of peptide
Source text: This example describes the capacity of preferred peptides of the invention to block the interaction between LBP and E. coli LPS. An ELISA was used to determine the binding of biotinylated-LPS to surface-captured human LBP, in the presence or absence of fixed quantities of the selected peptides. LPS was biotinylated according to standard procedures. Human LBP (hLBP) was captured by using a specific monoclonal antibody, purified by affinity chromatography. Mixtures of LPS and each peptide were incubated during 2 h at room temperature, and then 100 μL were added to hLBP-containing wells. The binding of biotinylated-LPS to hLBP was detected with horseradish peroxidase-conjugated streptavidin. The assay was developed by adding a chromogenic substrate. […] Each experiment recorded the interaction of hLBP and biotinylated-LPS in absence of peptides, in presence of LBP86-99, and in the example presented in FIG. 2 the effect of a non-related cationic peptide (C5,3).
Human LBP was captured to the plates using a specific monoclonal antibody. Binding of biotinylated-LPS was detected with an streptavidin-horseradish peroxidase conjugate. The extent to which the peptide LBP86-99 (LBP) inhibits this interaction is also shown.
The experimental conditions were similar to those described in FIG. 1. The effect of a non-related cationic peptide, C5,3 is also included.

[4] = tested on: LPS-stimulated human PBMC; test: LPS-induced IL-6 production in cultures of human PBMC; assay type: cell-based; conditions: at every hLBP concentrations tested
Description: In order to determine if the peptides of the present invention were able to neutralize LPS-mediated responses, their ability to reduce the release of TNF by LPS-activated human peripheral blood cells was estimated. This assay evaluates the release of TNF by LPS-induced human peripheral blood mononuclear cells (PBMC), using concentrations of LPS commonly found in septic patients. LPS was incubated with fixed concentrations of each peptide during 2 h at 37° C. and the mixtures were then added to PBMC. The culture medium was supplemented with human LBP (200 ng/mL) and plates were incubated at 37° C. in a 5% CO2 atmosphere. TNFα was measured in culture supernatants after 18 h using a human TNF-α specific ELISA. […]
This invention provides peptides with advantageous functions over other LBP-derived peptides that have the native sequence or different a.a. replacements to those herein described at positions +1, +5, +6, +7, +9, +10, +11, +12 and +13. […] IL-6 was measured in culture supernatants after 18 h using a human IL-6 specific ELISA. In the represented experiment, the following peptides were evaluated; LPB86-99, LBP-H (LBP86-101, SEQ ID NO. 56)^13, LBPA94, LBPA95, and LBPA98. […]
Results are expressed as % inhibition of IL-6 release compared with the cytokine production in the absence of peptides The effects on this assay of LBP86-99, (LBP), LBP-H and B6,1 are also shown.

Substance | LPS-stimulated TNF release by human PBMC [1] | mice survival [2] | interaction between hLBP and E. coli LPS (binding of biotinylated-LPS to captured hLBP) [3] | reduction of the LPS-triggered response (IL-6) [4]
LBP86-99: peptide with the native sequence of the 86-99 a.a. region of human LBP mature protein (RVQGRWKVRKSFFK) [reference compound] | Reduced levels of cytokine release | only marginally |  | 
LBPA86: LBP 86-99 peptide analogue, SEQ ID No.2 (AVQGRWKVRKSFFK) |  |  | notably impaired | 
LBPA90: LBP 86-99 peptide analogue, SEQ ID No.3 (RVQGAWKVRKSFFK) |  |  | notably impaired | 
LBPA91: peptide which has tryptophan residue at position (6) replaced with alanine, SEQ ID No.55 (RVQGRAKVRKSFFK) | did not inhibit |  | not affected | 
LBPA92: peptide with a residue at +6, +7 or +12 distinct from those of the invention, SEQ ID No.53 (RVQGRWAVRKSFFK) |  |  | not affected | 
LBPA94: LBP 86-99 peptide analogue, SEQ ID No.4, essential a.a. at position +9 (RVQGRWKVAKSFFK) | Reduced levels of cytokine release | significantly increased | notably impaired | 
LBPA95: LBP 86-99 peptide analogue, SEQ ID No.5, essential a.a. at position +10 (RVQGRWKVRASFFK) | Reduced levels of cytokine release | significantly increased | notably impaired | more than 70%
LBPA96: LBP 86-99 peptide analogue, SEQ ID No.6 (RVQGRWKVRKAFFK) | Reduced levels of cytokine release |  | notably impaired | 
LBPA97: peptide with a residue at +6, +7 or +12 distinct from those of the invention, SEQ ID No.54 (RVQGRWKVRKSAFK) |  |  | not affected | 
LBPA98: LBP 86-99 peptide analogue, SEQ ID No.7, essential a.a. at position +13 (RVQGRWKVRKSFAK) |  | significantly increased | notably impaired | 
